Data published in patent publication US20110124588A1, “SYNERGISTIC ACTIVE INGREDIENT COMBINATIONS” (Bayer Cropscience AG, priority 2008, published 2011).
Where two headings read alike, the source gives them in different places.

Columns and labels:
Phaedon cochleariae = Phaedon cochleariae larvae test (sprayed cabbage leaves); format: in vivo, mustard beetle (Phaedon cochleariae) larvae; conditions: single active compound
Experimental: (§1) If the actual kill rate exceeds the calculated value, the kill of the combination is superadditive, i.e. a synergistic effect is present. In this case, the actually observed kill rate must exceed the value calculated using the above formula for the expected kill rate (E).
Solvents: 78 parts by weight of acetone • • 1.5 parts by weight of dimethylformamide Emulsifier: 0.5 part by weight of alkylaryl polyglycol ether
After the desired period of time, the kill in % is determined 100% means that all beetle larvae have been killed; 0% means that none of the beetle larvae have been killed. The kill rates determined are entered into Colby's formula.

Myzus persicae = Myzus persicae test (spray treatment of infested cabbage leaves); format: in vivo, green peach aphid (Myzus persicae)
Experimental: as §1
(§2) solvents: 78 parts by weight of acetone • • 1.5 parts by weight of dimethylformamide emulsifier: 0.5 part by weight of alkylaryl polyglycol ether
After the desired period of time, the kill in % is determined 100% means that all aphids have been killed; 0% means that none of the aphids have been killed. The kill rates determined are entered into Colby's formula.

Spodoptera frugiperda = Spodoptera frugiperda larvae test (sprayed cabbage leaves); format: in vivo, army worm (Spodoptera frugiperda) larvae
Description: The expected activity of a given combination of two active compounds can be calculated as follows, according to S. R. Colby, Weeds 15 (1967), 20-22:
X is the kill rate, expressed as a percentage of the untreated control, when employing active compound A at an application rate of m g/ha or in a concentration of m ppm, Y is the kill rate, expressed as a percentage of the untreated control, when employing active compound B at an application rate of n g/ha or in a concentration of n ppm and E is the kill rate, expressed as a percentage of the untreated control, when employing active compounds A and B at application rates of m and n g/ha or in a concentration of m and n ppm, then
as §1, §2
To produce a suitable preparation of active compound, 1 part by weight of active compound is mixed with the stated amounts of solvents and emulsifier, and the concentrate is diluted with emulsifier-containing water to the desired concentration.
Cabbage leaves (Brassica oleracea) are treated by spraying with the active compound preparation of the desired concentration and are populated with larvae of the army worm (Spodoptera frugiperda) while the leaves are still moist.
After the desired period of time, the kill in % is determined 100% means that all caterpillars have been killed; 0% means that none of the caterpillars have been killed. The kill rates determined are entered into Colby's formula.

[1] = Phaedon cochleariae, 48 h, 2 d, read-out: Kill in % after 2 d
[2] = Myzus persicae, 144 h, read-out: Kill in % after 6 d
[3] = Spodoptera frugiperda, 144 h, read-out: Kill in % after 6 d
[4] = Phaedon cochleariae, 144 h, 6 d, read-out: Kill in % after 6 d
[5] = Spodoptera frugiperda, 48 h, read-out: Kill in % after 2 d
[6] = Myzus persicae, 24 h, read-out: Kill in % after 1 d

## CCCSP(=O)(OCC)Oc1ccc(Br)cc1Cl (centres unmarked) [profenofos]
Phaedon cochleariae; [1]
  pest or weed control at 20 g/ha: 50%

## CCOP(=S)(OCC)Oc1nc(Cl)c(Cl)cc1Cl [chlorpyrifos]
Myzus persicae; single active compound, 0.16 g/ha, 6 d
  Kill in % after 6 d: 0%
Myzus persicae; single active compound, 0.8 g/ha, 6 d
  Kill in % after 6 d: 0%
Spodoptera frugiperda; single active compound, 4 g/ha, 6 d
  Kill in % after 6 d: 33%

## CC1(C)C(C=C(Cl)Cl)C1C(=O)OC(C#N)c1cccc(Oc2ccccc2)c1 (centres unmarked) [cypermethrin]
Myzus persicae; [2]
  pest or weed control at 0.032 g/ha: 0%
  pest or weed control at 0.16 g/ha: 0%
Phaedon cochleariae; 0.8 g/ha, 2 d
  Kill in % after 2 d: 50%
Spodoptera frugiperda; [3]
  pest or weed control at 0.8 g/ha: 50%

## O=C(NC(=O)c1c(F)cccc1F)Nc1ccc(Oc2ccc(C(F)(F)F)cc2Cl)cc1F [flufenoxuron]
Phaedon cochleariae; [4]
  pest or weed control at 100 g/ha: 0%
Spodoptera frugiperda; [5]
  pest or weed control at 100 g/ha: 17%
Spodoptera frugiperda; [3]
  pest or weed control at 0.8 g/ha: 67%

## CC1(C)[C@H](/C=C(\Cl)C(F)(F)F)[C@@H]1C(=O)O[C@H](C#N)c1cccc(Oc2ccccc2)c1 [gamma-cyhalothrin]
Myzus persicae; [2]
  pest or weed control at 0.032 g/ha: 0%
Phaedon cochleariae; [4]
  pest or weed control at 0.16 g/ha: 0%
Spodoptera frugiperda; [3]
  pest or weed control at 0.16 g/ha: 17%

## CC[S+]([O-])c1c(C#N)nn(-c2c(Cl)cc(C(F)(F)F)cc2Cl)c1N (centres unmarked) [ethiprole]
Myzus persicae; [2]
  pest or weed control at 0.8 g/ha: 0%

## Cc1cc(C(F)(C(F)(F)F)C(F)(F)F)ccc1NC(=O)c1cccc(Cl)c1C(=O)N[C@@H](C)CS(C)(=O)=O [compound II-28-2]
Myzus persicae; Myzus persicae, 144 h, single active compound, 0.032 g/ha, 6 d, read-out: Kill in % after 6 d
  pest or weed control at 0.032 g/ha: 0%
Phaedon cochleariae; Phaedon cochleariae, 144 h, 0.8 g/ha, 6 d, read-out: Kill in % after 6 d
  pest or weed control at 0.8 g/ha: 0%
Spodoptera frugiperda; Spodoptera frugiperda, 144 h, single active compound, 0.16 g/ha, 6 d, read-out: Kill in % after 6 d
  pest or weed control at 0.16 g/ha: 50%

## O=C1C=C(N(Cc2ccc(Cl)nc2)CC(F)F)CO1 [compound II-29-29, 4-{[(6-chloropyrid-3-yl)methyl](2,2-difluoroethyl)amino}furan-2(5H)-one]
Myzus persicae; [2]
  pest or weed control at 0.8 g/ha: 50%
Phaedon cochleariae; [4]
  pest or weed control at 100 g/ha: 67%

## CC(C)N1C(=O)N(c2ccccc2)CS/C1=N\C(C)(C)C [buprofezin]
Myzus persicae; [6]
  pest or weed control at 4 g/ha: 0%
Phaedon cochleariae; [4]
  pest or weed control at 100 g/ha: 0%

## O=C(NC(=O)c1ccccc1Cl)Nc1ccc(OC(F)(F)F)cc1 [triflumuron]
Spodoptera frugiperda; [3]
  pest or weed control at 0.8 g/ha: 33%

## COc1cccc(C(=O)NN(C(=O)c2cc(C)cc(C)c2)C(C)(C)C)c1C [methoxyfenozide]
Myzus persicae; [2]
  pest or weed control at 0.16 g/ha: 0%
  pest or weed control at 0.8 g/ha: 0%
Phaedon cochleariae; [4]
  pest or weed control at 20 g/ha: 0%
Spodoptera frugiperda; [3]
  pest or weed control at 4 g/ha: 50%

## N#Cc1nn(-c2c(Cl)cc(C(F)(F)F)cc2Cl)c(N)c1[S+]([O-])C(F)(F)F (centres unmarked) [fipronil]
Myzus persicae; [2]
  pest or weed control at 0.8 g/ha: 0%

## CN(Cc1ccc(Cl)nc1)C1=CC(=O)OC1 [compound II-29-28, 4-{[(6-chloropyrid-3-yl)methyl](methyl)amino}furan-2(5H)-one]
Myzus persicae; Myzus persicae, 144 h, single active compound, 0.16 g/ha, 6 d, read-out: Kill in % after 6 d
  pest or weed control at 0.16 g/ha: 0%

## N#C/N=C1\SCCN1Cc1ccc(Cl)nc1 [thiacloprid]
Myzus persicae; [6]
  pest or weed control at 0.16 g/ha: 0%
Phaedon cochleariae; [4]
  pest or weed control at 20 g/ha: 50%
Spodoptera frugiperda; [3]
  pest or weed control at 20 g/ha: 50%

## FC(F)(F)c1ccc(OCCCOc2c(Cl)cc(OCC=C(Cl)Cl)cc2Cl)nc1 [pyridalyl]
Spodoptera frugiperda; [5]
  pest or weed control at 20 g/ha: 67%

## CN/C(=N\[N+](=O)[O-])NCc1cnc(Cl)s1 [clothianidin]
Myzus persicae; [2]
  pest or weed control at 0.16 g/ha: 40%
Phaedon cochleariae; Phaedon cochleariae, 144 h, 4 g/ha, 6 d, read-out: Kill in % after 6 d
  pest or weed control at 4 g/ha: 50%

## CNC(=O)c1cc(C#N)cc(C)c1NC(=O)c1cc(Br)nn1-c1ncccc1Cl [cyazypyr, Cyantraniliprole]
Myzus persicae; [6]
  pest or weed control at 0.16 g/ha: 0%
Phaedon cochleariae; [1]
  pest or weed control at 0.16 g/ha: 17%

## CN1CN(C)/C(=N\[N+](=O)[O-])N(Cc2cnc(Cl)s2)C1 [AKD 1022]
Phaedon cochleariae; 0.8 g/ha, 6 d
  Kill in % after 6 d: 0%
